The source of these data is patent US9663478B2, “Benzotriazine oxides as drugs targeting Mycobacterium tuberculosis” (priority 2011, dated 2017).

Structures are written as SMILES. Values after ≈ are worked out from the molar mass of the structure shown. Like-named read-outs stand apart in the source and are kept apart here.

Usually MIC stands for the lowest concentration that inhibits growth of the organism.

The test system of data set [1] is Mtb H37Rv. Kind of data set: TB MIC - ITR (UIC), Institute for Tuberculosis Research. In kind it is cell-based, Mycobacterium tuberculosis. To be noted: for MIC: Mycobacterium tuberculosis, H37RV, Tables 1-4, read-out: TB MIC - ITR.
The test system of data set [2] is NRP Mtb H37Rv cells. Briefly: Low-oxygen recovery assay (LORA) MIC. The class given is cell-based, Mycobacterium tuberculosis. The settings on record: for MIC: Mycobacterium tuberculosis, H37RV, NRP Mtb, Tables 1-4 and text, read-out: LORA MIC - ITR.
Data set [3] concerns Mtb H37Rv. Kind of data set: TB MIC - SRI, resazurin-based microplate assay. In kind it is cell-based, Mycobacterium tuberculosis. The settings on record: Mycobacterium tuberculosis, H37RV. (In general: Resazurin is reduced to fluorescent resorufin, in cell work by metabolically active cells.)
The test system of data set [4] is Vero cells.
[5] abbreviates: Tables P1-P3, read-out: TB MIC - SRI.
[6] abbreviates: Tables 1-4 and text, read-out: TB MIC - SRI.

The compound `[O-][n+]1nc(N[C@@H]2C[C@H]3CC[C@@H]2C3)[n+]([O-])c2ccc(Cl)cc21` (racemic) [SRI-012305] yielded a TB MIC - UIC in data set [1] (Tables P1, P2) of under 0.125 µg/mL. For the same compound, the LORA MIC in data set [2] (Tables P1, P2, non-replicating M. tuberculosis) came to 0.2 µg/mL. The MIC in data set [3] (setting [5]) amounted to 0.156 µg/mL (≈ 0.509 µM).

For `C[C@@H]1[C@H]2C[C@@H](C[C@H]1Nc1n[n+]([O-])c3cc(F)ccc3[n+]1[O-])C2(C)C` (racemic) [SRI-012402], the MIC in data set [3] (setting [5]) worked out at 0.312 µg/mL (≈ 0.939 µM).

With `[O-][n+]1nc(N[C@@H]2C[C@H]3CC[C@@H]2C3)[n+]([O-])c2cc3c(cc21)CCC3` (racemic) [SRI-012404], the “VERO Tox-SRI” value in data set [4] (African green monkey, 72 h) amounted to 50. The MIC in data set [3] (setting [5]) was determined as 1.25 µg/mL (≈ 4 µM).

Turning to `Cc1cccc2c1[n+]([O-])c(N[C@@H]1C[C@H]3CC[C@@H]1C3)n[n+]2[O-]` (racemic) [SRI-012461], in data set [4] (African green monkey, 72 h), the “VERO Tox-SRI” value was 2.3. In addition, in data set [3] (setting [5]), the MIC was determined as 0.156 µg/mL (≈ 0.545 µM).

`CSc1c(C)[n+]([O-])c2ccccc2[n+]1[O-]` [Cmpd 3]: in data set [4], the “Vero Tox CC50” value was over 16 µg/mL.

As for `[O-][n+]1nc(NC2CC2)[n+]([O-])c2ccccc21` [Compound 8b, 3-(cyclopropylamino)benzo[e][1,2,4]triazine 1,4-dioxide], the “Vero Tox CC50” value in data set [4] (African green monkey, 72 h) turned out to be 21 µg/mL. Further, in data set [3] (setting [6]), the MIC came to 2.5 µg/mL (≈ 11.5 µM).

With `[O-][n+]1nc(NC2CCC2)[n+]([O-])c2ccccc21` [Compound 8d, 3-(cyclobutylamino)benzo[e][1,2,4]triazine 1,4-dioxide], the MIC in data set [1] came out at 0.94 µg/mL (≈ 4.05 µM); in data set [2], 0.84 µg/mL (≈ 3.62 µM); in data set [3] (setting [6]), 1.2 µg/mL (≈ 5.17 µM).

In the case of `[O-][n+]1nc(NC2CCCCC2)[n+]([O-])c2ccccc21` [Compound 8f, 3-(cyclohexylamino)benzo[e][1,2,4]triazine 1,4-dioxide], the MIC is 3.8 µg/mL (≈ 14.6 µM) in data set [1], 0.75 µg/mL (≈ 2.88 µM) in data set [2] and 2.5 µg/mL (≈ 9.6 µM) in data set [3] (setting [6]).

As for `[O-][n+]1nc(NC2CCCCCC2)[n+]([O-])c2ccccc21` [Compound 8g, 3-(cycloheptylamino)benzo[e][1,2,4]triazine 1,4-dioxide], the MIC in data set [1] was found to be 1.6 µg/mL (≈ 5.83 µM); in data set [2] it was 0.5 µg/mL (≈ 1.82 µM); in data set [3] (setting [6]) it was 2.5 µg/mL (≈ 9.11 µM).

Consider `CC(C)(C)C1CCC(Nc2n[n+]([O-])c3ccccc3[n+]2[O-])CC1` (centres unmarked) [Compound 8j, 3-((4-(tert-butyl)cyclohexyl)amino)benzo[e][1,2,4]triazine 1,4-dioxide], for which the MIC was 0.22 µg/mL (≈ 0.695 µM) in data set [1], under 0.12 µg/mL in data set [2] and 0.62 µg/mL (≈ 1.96 µM) in data set [3] (setting [6]).

With `CC(C)CCC(C)Nc1n[n+]([O-])c2ccccc2[n+]1[O-]` (centres unmarked) [Compound 8l, 3-((5-methylhexan-2-yl)amino)benzo[e][1,2,4]triazine 1,4-dioxide], the MIC amounted to 0.52 µg/mL (≈ 1.88 µM) in data set [1], 0.38 µg/mL (≈ 1.38 µM) in data set [2] and 1.2 µg/mL (≈ 4.34 µM) in data set [3] (setting [6]).

As to `CCNc1n[n+]([O-])c2cc(F)ccc2[n+]1[O-]` [Compound 15aa, 3-(ethylamino)-7-fluorobenzo[e][1,2,4]triazine 1,4-dioxide], the MIC turned out to be 0.35 µg/mL (≈ 1.56 µM) in data set [1], 0.75 µg/mL (≈ 3.35 µM) in data set [2] and 0.62 µg/mL (≈ 2.77 µM) in data set [3] (setting [6]).

Turning to `[O-][n+]1nc(NC2CCCC2)[n+]([O-])c2ccc(F)cc21` [Compound 15ae, 3-(cyclopentylamino)-7-fluorobenzo[e][1,2,4]triazine 1,4-dioxide], the MIC in data set [1] was 0.33 µg/mL (≈ 1.25 µM); in data set [2], 0.34 µg/mL (≈ 1.29 µM); in data set [3] (setting [6]), 0.31 µg/mL (≈ 1.17 µM).

With `[O-][n+]1nc(NC2CCCCC2)[n+]([O-])c2ccc(F)cc21` [Compound 15af, 3-(cyclohexylamino)-7-fluorobenzo[e][1,2,4]triazine 1,4-dioxide], the results for the MIC in data set [1], in data set [2] and in data set [3] (setting [6]) were 0.68 µg/mL (≈ 2.44 µM), 0.47 µg/mL (≈ 1.69 µM) and 0.62 µg/mL (≈ 2.23 µM), respectively.

Regarding `[O-][n+]1nc(NC2CCC2)[n+]([O-])c2ccc(Cl)cc21` [Compound 15bd, 7-chloro-3-(cyclobutylamino)benzo[e][1,2,4]triazine 1,4-dioxide], the minimal inhibitory concentration (MIC) was under 0.12 µg/mL in data set [2] and 0.15 µg/mL (≈ 0.562 µM) in data set [3] (setting [6]).

As for `CCNc1n[n+]([O-])c2cc(OC)ccc2[n+]1[O-]` [Compound 15da, 3-(ethylamino)-7-methoxybenzo[e][1,2,4]triazine 1,4-dioxide], the MIC is 15 µg/mL (≈ 63.5 µM) in data set [1], 16 µg/mL (≈ 67.7 µM) in data set [2] and 2.5 µg/mL (≈ 10.6 µM) in data set [3] (setting [6]).

As for `Cc1cccc2c1[n+]([O-])c(NC1CCCC1)n[n+]2[O-]` [Compound 15ee, 3-(cyclopentylamino)-5-methylbenzo[e][1,2,4]triazine 1,4-dioxide], the results for the MIC in data set [1], in data set [2] and in data set [3] (setting [6]) were 0.43 µg/mL (≈ 1.65 µM), 0.27 µg/mL (≈ 1.04 µM) and 0.31 µg/mL (≈ 1.19 µM), respectively.

`[O-][n+]1nc(N2CCCC2)[n+]([O-])c2ccccc21` [Compound 17q, 3-(pyrrolidin-1-yl)benzo[e][1,2,4]triazine 1,4-dioxide]: in data set [4] (African green monkey, 72 h), the “Vero Tox CC50” value was 17 µg/mL. In data set [3] (Table 5, read-out: MIC, H37Rv), the MIC was determined as 0.31 µg/mL (≈ 1.33 µM).

With `CC(C)(C)Nc1n[n+]([O-])c2ccccc2[n+]1[O-]` [SRI-003356], the MIC in data set [3] (read-out: TB MIC - SRI, Tables P1-P3) worked out at 1.25 µg/mL (≈ 5.34 µM).

The compound `CCN(CC)c1n[n+]([O-])c2ccccc2[n+]1[O-]` [SRI-009728] came in with a TB MIC - UIC in data set [1] (Table P3) of 12.4 µg/mL. Besides, in data set [3] (setting [5]), the MIC is 0.312 µg/mL (≈ 1.33 µM).

With `Nc1n[n+]([O-])c2cc(Br)ccc2[n+]1[O-]` [SRI-012396], the MIC in data set [3] (setting [5]) was determined as 1.25 µg/mL (≈ 4.86 µM).

On to `Cc1cccc2c1[n+]([O-])c(N)n[n+]2[O-]` [SRI-012397], for which the MIC in data set [3] (setting [5]) worked out at 0.625 µg/mL (≈ 3.25 µM).

Take `Nc1n[n+]([O-])c2cc3c(cc2[n+]1[O-])CCC3` [SRI-012398]: in data set [3] (setting [5]), the minimum inhibitory concentration (MIC) was found to be 2.5 µg/mL (≈ 11.5 µM).

On to `CCNc1n[n+]([O-])c2cc(C)c(C)cc2[n+]1[O-]` [SRI-012399], for which, in data set [3] (setting [5]), the MIC is 2.5 µg/mL (≈ 10.7 µM).

Consider `CC(C)(C)C1CCC(Nc2n[n+]([O-])c3cc(F)ccc3[n+]2[O-])CC1` (centres unmarked) [SRI-012401], for which the MIC in data set [3] (setting [5]) came out at 0.312 µg/mL (≈ 0.933 µM).
